For 13 molecules, Activity and Km results are on record in ChEMBL document CHEMBL2074292, “Isolation, characterization and differential gene expression of multispecific organic anion transporter 2 in mice” (Mol Pharmacol, 2002).

Data set [1] concerns the target T1, Solute carrier family 22 member 7 (Mus musculus, UniProt Q91WU2).
T1 sequence (Q91WU2 whole entry): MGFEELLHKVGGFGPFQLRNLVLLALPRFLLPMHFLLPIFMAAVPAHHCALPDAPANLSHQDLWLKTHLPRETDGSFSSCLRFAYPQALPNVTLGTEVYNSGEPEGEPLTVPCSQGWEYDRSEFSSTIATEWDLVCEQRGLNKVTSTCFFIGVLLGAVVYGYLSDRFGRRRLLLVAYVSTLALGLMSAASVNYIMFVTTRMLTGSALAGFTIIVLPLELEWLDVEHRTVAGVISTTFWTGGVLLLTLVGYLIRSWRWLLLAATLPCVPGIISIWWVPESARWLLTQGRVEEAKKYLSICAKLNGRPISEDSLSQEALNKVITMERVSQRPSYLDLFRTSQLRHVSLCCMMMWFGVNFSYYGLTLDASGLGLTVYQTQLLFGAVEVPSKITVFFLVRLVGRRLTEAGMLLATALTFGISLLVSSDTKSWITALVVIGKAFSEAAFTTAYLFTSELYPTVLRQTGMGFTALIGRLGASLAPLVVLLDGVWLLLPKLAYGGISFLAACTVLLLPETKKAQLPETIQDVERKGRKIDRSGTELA
Briefly: (§1) TP_TRANSPORTER: uptake in Xenopus laevis oocytes. The format is functional, cell-based. To be noted: oocyte.

Data set [2] deals with T1, Solute carrier family 22 member 7. Kind of data set: TP_TRANSPORTER: inhibition of Glutarate uptake (Glutarate: 5 uM, BSP: 250 uM) in Xenopus laevis oocytes. Particulars: oocyte. The data set is classed as functional, cell-based.
For data set [3] the target is unchanged. Briefly: TP_TRANSPORTER: inhibition of Glutarate uptake (Glutarate: 5 uM, ICG: 1000 uM) in Xenopus laevis oocytes. The data set is classed as functional, cell-based. Particulars: oocyte.
Data set [4] has the same target. Briefly: TP_TRANSPORTER: inhibition of Glutarate uptake (Glutarate: 5 uM, Erythromycin: 1000 uM) in Xenopus laevis oocytes. The format is functional, cell-based. Particulars: oocyte.
The target is the same in data set [5]. Briefly: TP_TRANSPORTER: inhibition of Glutarate uptake (Glutarate: 5 uM, Oxaloacetate: 1000 uM) in Xenopus laevis oocytes. The data set is classed as functional, cell-based. To be noted: oocyte.
Data set [6] has the same target. Briefly: TP_TRANSPORTER: inhibition of Glutarate uptake (Glutarate: 5 uM, Enalapril: 1000 uM) in Xenopus laevis oocytes. The format is functional, cell-based. To be noted: oocyte.
Data set [7] shares this target. Kind of data set: TP_TRANSPORTER: inhibition of Glutarate uptake (Glutarate: 5 uM, Cefoperazone: 1000 uM) in Xenopus laevis oocytes. The format is functional, cell-based. To be noted: oocyte.
Substrate in data set [8]: CCCCC[C@H](O)/C=C/[C@H]1[C@H](O)CC(=O)[C@@H]1C/C=C\CCCC(=O)O
The description is as §1. The data set is classed as functional, cell-based, Oocyte.

Substrate in data set [9]: O=C(O)CCCC(=O)O
The description is as §1. The format is functional, cell-based, Oocyte.

What is called Km is the substrate concentration at which the rate is half of its maximum.

For the molecule `Nc1ccc(C(=O)NCC(=O)O)cc1` [AMINOHIPPURIC ACID], the Activity entry in [1] is “substrate [+]”.
With `O=C1OC(c2ccc(O)c(S(=O)(=O)[O-])c2)(c2ccc(O)c(S(=O)(=O)[O-])c2)c2c(Br)c(Br)c(Br)c(Br)c21.[Na+].[Na+]` [SULFOBROMOPHTHALEIN SODIUM], in [2], the Activity entry was “inhibitor [(at a rough estimate) 25 % of control]”.
Regarding `CC1(C)C(/C=C/C=C/C=C/C=C2/N(CCCCS(=O)(=O)[O-])c3ccc4ccccc4c3C2(C)C)=[N+](CCCCS(=O)(=O)[O-])c2ccc3ccccc3c21.[Na+]` [INDOCYANINE GREEN], in data set [3], the Activity result is “inhibitor [(at a rough estimate) 30 % of control]”.
In the case of `CC[C@H]1OC(=O)[C@H](C)[C@@H](O[C@H]2C[C@@](C)(OC)[C@@H](O)[C@H](C)O2)[C@H](C)[C@@H](O[C@@H]2O[C@H](C)C[C@H](N(C)C)[C@H]2O)[C@](C)(O)C[C@@H](C)C(=O)[C@H](C)[C@@H](O)[C@]1(C)O` [ERYTHROMYCIN], the Activity result in data set [4] is “inhibitor [(at a rough estimate) 20 % of control]”.
With `O=C(O)CC(=O)C(=O)O` [OXALOACETATE], in [5], the Activity entry was “inhibitor [(at a rough estimate) 45 % of control]”.
As to `O=C(O)c1ccccc1O` [SALICYLIC ACID], the Activity result in data set [1] is “is not a substrate [-]”.
Still for that read-out and setting: the result for `O=C(O)CCC(=O)C(=O)O` [ALPHA-KETOGLUTARIC ACID] reads “substrate [+]”; that for `CCCC(CCC)C(=O)O` [VALPROIC ACID], “substrate [+]”; that for `C[C@@H]1Cc2c(Cl)cc(C(=O)N[C@@H](Cc3ccccc3)C(=O)O)c(O)c2C(=O)O1` [3R14S-OCHRATOXIN A], “substrate [+]”.
Turning to `CCOC(=O)[C@H](CCc1ccccc1)N[C@@H](C)C(=O)N1CCC[C@H]1C(=O)O` [ENALAPRIL], in [6], the Activity entry is “inhibitor [(at a rough estimate) 30 % of control]”.
With `Oc1ncnc2[nH]ncc12` [ALLOPURINOL], the Activity result in data set [1] is “substrate [+]”.
As for `CCN1CCN(C(=O)N[C@@H](C(=O)N[C@@H]2C(=O)N3C(C(=O)O)=C(CSc4nnnn4C)CS[C@H]23)c2ccc(O)cc2)C(=O)C1=O` [CEFOPERAZONE], the Activity entry in data set [7] is “inhibitor [(at a rough estimate) 40 % of control]”.

B1: Solute carrier family 22 member 7 (Mus musculus) (protein)
chain: MGFEELLHKVGGFGPFQLRNLVLLALPRFLLPMHFLLPIFMAAVPAHHCALPDAPANLSHQDLWLKTHLPRETDGSFSSCLRFAYPQALPNVTLGTEVYNSGEPEGEPLTVPCSQGWEYDRSEFSSTIATEWDLVCEQRGLNKVTSTCFFIGVLLGAVVYGYLSDRFGRRRLLLVAYVSTLALGLMSAASVNYIMFVTTRMLTGSALAGFTIIVLPLELEWLDVEHRTVAGVISTTFWTGGVLLLTLVGYLIRSWRWLLLAATLPCVPGIISIWWVPESARWLLTQGRVEEAKKYLSICAKLNGRPISEDSLSQEALNKVITMERVSQRPSYLDLFRTSQLRHVSLCCMMMWFGVNFSYYGLTLDASGLGLTVYQTQLLFGAVEVPSKITVFFLVRLVGRRLTEAGMLLATALTFGISLLVSSDTKSWITALVVIGKAFSEAAFTTAYLFTSELYPTVLRQTGMGFTALIGRLGASLAPLVVLLDGVWLLLPKLAYGGISFLAACTVLLLPETKKAQLPETIQDVERKGRKIDRSGTELA
In the case of B1, the Km in data set [8] turned out to be 0.0052 µM; in data set [9], 15.8 µM.
